Data from the NIST ThermoML archive (doi:10.1016/j.jct.2014.05.016).
± gives the expanded uncertainty stated by the source.

Assay: xn = mol fraction of the nth substance listed
Conditions: 100 kPa, Liquid; for mass density: Vibrating tube method; for viscosity: Concentric cylinders viscometry

C[n+]1ccn(CCO)c1.F[B-](F)(F)F [1-(2-hydroxyethyl)-3-methylimidazolium tetrafluoroborate] + CCCCn1cc[n+](C)c1.F[B-](F)(F)F
Conditions	mass density [kg/m3]	viscosity [mPa·s]
318.15 K, x1 = 0.101	1199.8 ± 1.1	–
318.15 K, x1 = 0.201	1213.5 ± 1.1	–
318.15 K, x1 = 0.3002	1227.8 ± 1.1	–
318.15 K, x1 = 0.4006	1243.6 ± 1.1	–
318.15 K, x1 = 0.5009	1258.1 ± 1.1	–
318.15 K, x1 = 0.5991	1274.1 ± 1.1	–
318.15 K, x1 = 0.7001	1293.8 ± 1.1	–
318.15 K, x1 = 0.8	1307.8 ± 1.1	–
318.15 K, x1 = 0.8995	1325.7 ± 1.1	–
318.15 K, x1 = 1	1343.7 ± 1.1	–
323.15 K, x1 = 0.1003	–	35.84 ± 2.9
323.15 K, x1 = 0.101	1196.3 ± 1.1	–
323.15 K, x1 = 0.2001	–	35.27 ± 2.8
323.15 K, x1 = 0.201	1209.9 ± 1.1	–
323.15 K, x1 = 0.2997	–	35.51 ± 2.9
323.15 K, x1 = 0.3002	1224.2 ± 1.1	–
323.15 K, x1 = 0.3999	–	35.68 ± 2.9
323.15 K, x1 = 0.4006	1240 ± 1.1	–
323.15 K, x1 = 0.4996	–	35.08 ± 2.8
323.15 K, x1 = 0.5009	1254.5 ± 1.1	–
323.15 K, x1 = 0.5991	1270.4 ± 1.1	35.69 ± 2.9
323.15 K, x1 = 0.6997	–	35.78 ± 2.9
323.15 K, x1 = 0.7001	1290.3 ± 1.1	–
323.15 K, x1 = 0.7999	–	36.02 ± 2.9
323.15 K, x1 = 0.8	1304.1 ± 1.1	–
323.15 K, x1 = 0.8995	1322 ± 1.1	–
323.15 K, x1 = 0.8998	–	36.55 ± 2.9
323.15 K, x1 = 1	1340.1 ± 1.1	36.5 ± 2.9
328.15 K, x1 = 0.1003	–	29.96 ± 2.4
328.15 K, x1 = 0.101	1192.8 ± 1.1	–
328.15 K, x1 = 0.2001	–	29.52 ± 2.4
328.15 K, x1 = 0.201	1206.5 ± 1.1	–
328.15 K, x1 = 0.2997	–	29.75 ± 2.4
328.15 K, x1 = 0.3002	1220.7 ± 1.1	–
328.15 K, x1 = 0.3999	–	29.9 ± 2.4
328.15 K, x1 = 0.4006	1236.4 ± 1.1	–
328.15 K, x1 = 0.4996	–	29.42 ± 2.4
328.15 K, x1 = 0.5009	1250.9 ± 1.1	–
328.15 K, x1 = 0.5991	1266.8 ± 1.1	29.91 ± 2.4
328.15 K, x1 = 0.6997	–	29.95 ± 2.4
328.15 K, x1 = 0.7001	1286.7 ± 1.1	–
328.15 K, x1 = 0.7999	–	30.13 ± 2.4
328.15 K, x1 = 0.8	1300.5 ± 1.1	–
328.15 K, x1 = 0.8995	1318.3 ± 1.1	–
328.15 K, x1 = 0.8998	–	30.58 ± 2.4
328.15 K, x1 = 1	1336.4 ± 1.1	30.46 ± 2.4
333.15 K, x1 = 0.1003	–	25.35 ± 2
333.15 K, x1 = 0.101	1189.3 ± 1.1	–
333.15 K, x1 = 0.2001	–	25.03 ± 2
333.15 K, x1 = 0.201	1203 ± 1.1	–
333.15 K, x1 = 0.2997	–	25.2 ± 2
333.15 K, x1 = 0.3002	1217.2 ± 1.1	–
333.15 K, x1 = 0.3999	–	25.27 ± 2
333.15 K, x1 = 0.4006	1232.9 ± 1.1	–
333.15 K, x1 = 0.4996	–	24.96 ± 2
333.15 K, x1 = 0.5009	1247.6 ± 1.1	–
333.15 K, x1 = 0.5991	1263.2 ± 1.1	25.36 ± 2
333.15 K, x1 = 0.6997	–	25.41 ± 2
333.15 K, x1 = 0.7001	1283.1 ± 1.1	–
333.15 K, x1 = 0.7999	–	25.55 ± 2.1
333.15 K, x1 = 0.8	1296.8 ± 1.1	–
333.15 K, x1 = 0.8995	1314.7 ± 1.1	–
333.15 K, x1 = 0.8998	–	25.83 ± 2.1
333.15 K, x1 = 1	1332.8 ± 1.1	25.73 ± 2.1
338.15 K, x1 = 0.1003	–	21.68 ± 1.7
338.15 K, x1 = 0.101	1185.9 ± 1.1	–
338.15 K, x1 = 0.2001	–	21.42 ± 1.7
338.15 K, x1 = 0.201	1199.5 ± 1.1	–
338.15 K, x1 = 0.2997	–	21.57 ± 1.7
338.15 K, x1 = 0.3002	1213.7 ± 1.1	–
338.15 K, x1 = 0.3999	–	21.63 ± 1.7
338.15 K, x1 = 0.4006	1229.4 ± 1.1	–
338.15 K, x1 = 0.4996	–	21.39 ± 1.7
338.15 K, x1 = 0.5009	1244.1 ± 1.1	–
338.15 K, x1 = 0.5991	1259.7 ± 1.1	21.68 ± 1.7
338.15 K, x1 = 0.6997	–	21.72 ± 1.7
338.15 K, x1 = 0.7001	1279.5 ± 1.1	–
338.15 K, x1 = 0.7999	–	21.81 ± 1.8
338.15 K, x1 = 0.8	1293.2 ± 1.1	–
338.15 K, x1 = 0.8995	1311.1 ± 1.1	–
338.15 K, x1 = 0.8998	–	22.08 ± 1.8
338.15 K, x1 = 1	1329.2 ± 1.1	21.98 ± 1.8
343.15 K, x1 = 0.1003	–	18.71 ± 1.5
343.15 K, x1 = 0.101	1182.4 ± 1.1	–
343.15 K, x1 = 0.2001	–	18.51 ± 1.5
343.15 K, x1 = 0.201	1196 ± 1.1	–
343.15 K, x1 = 0.2997	–	18.64 ± 1.5
343.15 K, x1 = 0.3002	1210.3 ± 1.1	–
343.15 K, x1 = 0.3999	–	18.68 ± 1.5
343.15 K, x1 = 0.4006	1225.9 ± 1.1	–
343.15 K, x1 = 0.4996	–	18.5 ± 1.5
343.15 K, x1 = 0.5009	1240.6 ± 1.1	–
343.15 K, x1 = 0.5991	1256.2 ± 1.1	18.74 ± 1.5
343.15 K, x1 = 0.6997	–	18.78 ± 1.5
343.15 K, x1 = 0.7001	1276 ± 1.1	–
343.15 K, x1 = 0.7999	–	18.84 ± 1.5
343.15 K, x1 = 0.8	1289.7 ± 1.1	–
343.15 K, x1 = 0.8995	1307.5 ± 1.1	–
343.15 K, x1 = 0.8998	–	19.06 ± 1.5
343.15 K, x1 = 1	1325.5 ± 1.1	18.95 ± 1.5
